Experimental data as given in patent US7919470B2, “Glycopeptide composition with improved antibiotic activity” (Xellia Pharmaceuticals APS, priority 2003, dated 2011).
Where “and” joins values, the source holds several entries; their conditions need not be identical. Equal entries are not always repeated.

How the values were obtained:
[1] = system: Staphylococcus aureus ATCC 6538; assay: Microbiological potency by agar diffusion; format: cell-based; conditions: for Potency IU/mg powder: agar diffusion, Example 1 spiking experiments; for Potential potency IU/mg (TA2 + TA3-1): potency of the powder related to its HPLC content of TA2 + TA3-1
Experimental: Accordingly, in one embodiment a Teicoplanin composition as described herein, has a higher antibiotic activity than a corresponding Teicoplanin composition that has a % (mg TA3)/(mg TA3+TA2) of 6.5%, where the antibiotic activity is measured by a microbiological agar diffusion assay using Staphylococcus aureus ATCC 6538 as test strain and the measured potential potency (IU per mg TA2+TA3/g composition) is used to calculate the antibiotic activity.
(§1) Potency of Teicoplanin TA2, TA3-1 alone or in combination was determined by agar diffusion assays. Furthermore, the antimicrobial effect of pure and spiked products was investigated through the determination of the minimum inhibitory concentration (MIC) by a modified “MIC” test in micro titer trays.
The potency test is carried out according to the assay described below. The assay method generally corresponds to USP 25 and Ph.Eur 4th ed., but differs from both with respect to test strain and from the USP with respect to agar holes (ponds) as preferred to cylinders. The test is carried out as a 2,2 design as described in section <111> of the USP.
Stock solutions of standards and samples were prepared to approximately 900 IU/ml. The Teicoplanin standard contained approximately 25.0 mg in 4.0 ml water and buffer ad 25.0 ml. The samples of Teicoplanin compositions contained approximately 25.0 mg in 4.0 ml water and buffer ad 25.0 ml. The amount of sample was adjusted according to the actual amount of standard weighed. Finally, the standard and sample were diluted with buffer to the following concentrations:
The standard or sample was applied to the plates in accordance with an 8×8 Latin square design. Immediately after application, place the plates in the incubator at 34.0° C.±2° C., for 16-18 hours.
The results are analyzed by reading the zone diameters carefully with a 10× magnification and a precision of 0.1 mm. Statistical evaluation: for calculation and validation, follow the guidelines set out in Ph. Eur. and USP, using a computer program for all calculations.
In the spiking experiments, the amount of the investigated sample (amount of powder weighed) was reduced and replaced by a corresponding amount of spiking material or stock solutions were mixed in defined ratios.
(§2) Potency of teicoplanin TA2, TA3-1 alone or in combinations was determined by agar diffusion assays as described in example 1. Modified MIC-values in microtitre trays were determined as described in example 1.

S. aureus ATCC 6538 = assay: Modified MIC test in micro titer trays; format: cell-based, Staphylococcus aureus; conditions: for MIC: 24 hours, 37° C.
Experimental: as §1
Pure TA3-1, (Teicoplanin Material B 96% TA2-X, 4% TA3-1) and mixtures thereof were used. The test strain used was S. aureus ATCC 6538 in final concentrations of 5×10^5/ml and 5×10^4/ml respectively. The test was carried out in micro titer trays as a modification of an ordinary MIC test. Instead of using two-fold dilutions, 0.40-1.20 μg/ml with 0.20 μl divisions and 1.0-4.0 μl/ml with 1.0 μl divisions was used. The trays were incubated at 37° C. The wells were examined after 24 hours and any visible growth was noted.
In order to strengthen the evidence some experiments were performed with a modified antimicrobial analysis of Teicoplanin, spiked with different amounts of TA3-1. It was carried out in liquid medium in contrast to the agar diffusion tests and determined the MIC values. The results are summarized in Table 4, (“MIC”-values of Teicoplanin and/or TA3-1 on S. aureus ATCC6538).
as §2

CC(=O)N[C@H]1[C@H](O[C@@H]2c3ccc(c(Cl)c3)Oc3cc4cc(c3O[C@@H]3O[C@H](CO)[C@@H](O)[C@H](O)[C@H]3NC(=O)CCCCCCC(C)C)Oc3ccc(cc3Cl)C[C@H]3NC(=O)[C@H](N)c5ccc(O)c(c5)Oc5cc(O)cc(c5)[C@H](NC3=O)C(=O)N[C@H]4C(=O)N[C@H]3C(=O)N[C@@H]2C(=O)N[C@H](C(=O)O)c2cc(O)cc(O[C@H]4O[C@H](CO)[C@@H](O)[C@H](O)[C@@H]4O)c2-c2cc3ccc2O)O[C@H](CO)[C@@H](O)[C@@H]1O [TA2-2, Teicoplanin A2-2]
Potency IU/mg powder [1]: 807 IU/mg powder and 776 IU/mg powder | Potential potency IU/mg (TA2 + TA3-1) [1]: 1017 IU/mg (TA2 + TA3-1) and 994 IU/mg (TA2 + TA3-1)

CC(=O)N[C@H]1[C@H](O[C@@H]2c3ccc(c(Cl)c3)Oc3cc4cc(c3O)Oc3ccc(cc3Cl)C[C@H]3NC(=O)[C@H](N)c5ccc(O)c(c5)Oc5cc(O)cc(c5)[C@H](NC3=O)C(=O)N[C@H]4C(=O)N[C@H]3C(=O)N[C@@H]2C(=O)N[C@H](C(=O)O)c2cc(O)cc(O[C@H]4O[C@H](CO)[C@@H](O)[C@H](O)[C@@H]4O)c2-c2cc3ccc2O)O[C@H](CO)[C@@H](O)[C@@H]1O [TA3-1, Teicoplanin A3-1]
Potency compared with Targocid ([1]; Example 2, agar diffusion): much lower potency | Potency IU/mg powder [1]: 570 IU/mg powder | Potential potency IU/mg (TA2 + TA3-1) [1]: 687 IU/mg (TA2 + TA3-1) | MIC (S. aureus ATCC 6538; 5 × 10^4/ml S. aureus): 2 to 3 µg/mL | MIC (S. aureus ATCC 6538; 5 × 10^5/ml S. aureus): 2 to 3 µg/mL | Antimicrobial effect on S. aureus compared with Teicoplanin (S. aureus ATCC 6538; Example 1, MIC determination): much lower | MIC value of pure TA3-1 relative to Targocid alone (S. aureus ATCC 6538; Example 2, FIG. 6, MIC in μg powder/ml solution): 4-5 times higher | Antimicrobial effect on S. aureus relative to teicoplanin TA2 (S. aureus ATCC 6538; Example 2, MIC determination): 4-5
